The values below come from patent US9309242B2, “Substituted pyrido[2,3-b]pyrazines as FGFR kinase inhibitors” (priority 2011, dated 2016).

Like-named read-outs stand apart in the source and are kept apart here.

The target of one assay is FGFR1 (h) (Homo sapiens, UniProt P11362). Nature of the assay: FGFR1 (enzymatic assay), TR-FRET. As to conditions: read-out: FGFR 1 pIC50 (converted). The class given is biochemical.
The target in another assay is FGFR2 (h) (Homo sapiens, UniProt P21802). In words: FGFR2 (enzymatic assay), TR-FRET. The class given is biochemical. As to conditions: enzymatic assay, read-out: FGFR 2 pIC50 (converted). The method in brief: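 Compound (1% DMSO final) was combined with FGFR2 (h), 150 ng/ml, plus 0.4 μM ATP and 500 nM biotin-Flt3 in Mn2+-containing HEPES buffer at pH 7.5.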
Sequence of FGFR2 (h) (P21802 22-821): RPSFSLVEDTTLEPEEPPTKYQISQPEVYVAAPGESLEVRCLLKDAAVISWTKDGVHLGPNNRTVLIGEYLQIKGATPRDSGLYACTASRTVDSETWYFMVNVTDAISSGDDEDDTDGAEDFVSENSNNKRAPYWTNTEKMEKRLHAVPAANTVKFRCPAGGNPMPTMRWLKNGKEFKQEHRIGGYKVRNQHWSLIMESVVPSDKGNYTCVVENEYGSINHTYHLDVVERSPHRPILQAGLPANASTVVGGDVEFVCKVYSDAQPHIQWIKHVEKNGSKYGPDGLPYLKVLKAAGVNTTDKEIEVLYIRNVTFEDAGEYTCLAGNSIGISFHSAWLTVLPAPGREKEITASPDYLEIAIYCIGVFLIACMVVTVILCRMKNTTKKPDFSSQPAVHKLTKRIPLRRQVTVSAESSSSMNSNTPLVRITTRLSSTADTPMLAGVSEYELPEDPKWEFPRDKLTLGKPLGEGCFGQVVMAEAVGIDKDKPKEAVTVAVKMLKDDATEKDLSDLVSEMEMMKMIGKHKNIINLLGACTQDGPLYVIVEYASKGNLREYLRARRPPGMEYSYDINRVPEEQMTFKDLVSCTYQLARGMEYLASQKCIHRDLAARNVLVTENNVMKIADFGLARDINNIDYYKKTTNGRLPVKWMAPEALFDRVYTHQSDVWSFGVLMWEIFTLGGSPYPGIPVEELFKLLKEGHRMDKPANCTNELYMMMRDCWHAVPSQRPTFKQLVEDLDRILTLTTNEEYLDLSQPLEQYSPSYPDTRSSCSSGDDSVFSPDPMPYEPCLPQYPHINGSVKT
(In general: Time-resolved FRET reads energy transfer from a long-lived donor to a nearby acceptor.)

Another assay has as its target KDR (h) (Homo sapiens, UniProt P35968). Nature of the assay: KDR (VEGFR2) (enzymatic assay), TR-FRET. Type of assay: biochemical. As to conditions: read-out: VEGFR 2 (KDR) pIC50 (converted). The method in brief:
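Read-out is TR-FRET (ex 340 nm, em 620 and 655 nm) in RFU, after an EDTA stop carrying Eu-labelled anti-phosphotyrosine and SA-XL-665 (60 min, RT). The preceding kinase reaction ran 120 min at RT with 150 ng/ml enzyme, 500 nM Btn-Flt3 and 3 μM ATP.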

The target of assay [1] is T1, Ba/F3-FGFR1-transfected cells (Homo sapiens, UniProt P11362).
T1 construct: BAF3-FGFR1 (MIN IL3) pIC50; other: minus IL3
T1 sequence (P11362 whole entry, change not shown): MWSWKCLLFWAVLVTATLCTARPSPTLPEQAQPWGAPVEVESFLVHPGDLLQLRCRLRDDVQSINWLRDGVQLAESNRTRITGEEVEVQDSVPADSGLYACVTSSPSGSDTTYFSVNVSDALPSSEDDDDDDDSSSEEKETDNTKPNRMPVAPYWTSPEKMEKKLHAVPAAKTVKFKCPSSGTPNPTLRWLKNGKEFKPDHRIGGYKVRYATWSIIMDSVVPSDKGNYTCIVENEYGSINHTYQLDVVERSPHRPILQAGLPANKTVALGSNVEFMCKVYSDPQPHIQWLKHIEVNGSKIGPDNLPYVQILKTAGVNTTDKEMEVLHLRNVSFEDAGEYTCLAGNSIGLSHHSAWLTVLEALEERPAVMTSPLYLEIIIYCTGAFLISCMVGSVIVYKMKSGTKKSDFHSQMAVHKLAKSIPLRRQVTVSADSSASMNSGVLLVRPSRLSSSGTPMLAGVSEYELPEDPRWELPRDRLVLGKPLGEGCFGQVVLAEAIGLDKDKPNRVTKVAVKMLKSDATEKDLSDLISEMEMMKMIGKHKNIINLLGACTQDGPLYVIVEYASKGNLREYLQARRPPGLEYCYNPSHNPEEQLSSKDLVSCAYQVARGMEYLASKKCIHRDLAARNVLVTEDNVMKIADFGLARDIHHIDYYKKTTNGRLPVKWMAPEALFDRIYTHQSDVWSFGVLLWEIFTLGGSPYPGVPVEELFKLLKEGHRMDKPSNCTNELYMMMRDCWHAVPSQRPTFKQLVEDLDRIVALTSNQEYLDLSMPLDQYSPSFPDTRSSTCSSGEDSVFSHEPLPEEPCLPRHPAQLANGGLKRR
Nature of the assay: Ba/F3-FGFR1 (minus IL3) cellular proliferation assay, Alamar Blue. The class given is cell-based. The method in brief: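 Viability was measured by resazurin reduction (fluorescence, 540 nm excitation/590 nm emission) after a 4 h Alamar Blue incubation. This followed 24 h of compound treatment at 37 °C, 5% CO2, of 20000 FGFR1-transfected Ba/F3 cells per well in 10% FBS RPMI-1640.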

The subject of assay [2] is Ba/F3-FGFR3-transfected cells. In words: Ba/F3-FGFR3 (plus IL3) cellular proliferation assay, counterscreen with 10 ng/ml murine IL3. The class given is cell-based. As to conditions: plus IL3 (10 ng/ml murine IL3, counterscreen); read-out: BAF3-FGFR3 (PLUS IL3) pIC50 (converted). The method in brief:
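Viability readout was resazurin reduction (ex 540/em 590 nm) after 4 h, following 24 h compound treatment at 37 °C of FGFR3-transfected Ba/F3 cells (20000/well, RPMI-1640/10% FBS). IL3-dependent counterscreen used identical conditions plus 10 ng/ml murine IL3.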
On the technique in general: The purpose of a counterscreen is to sort out artefacts and off-target activity.

For assay [3], the system named is Ba/F3-KDR-transfected cells. In words: Ba/F3-KDR (plus IL3) cellular proliferation assay, counterscreen with 10 ng/ml murine IL3. Type of assay: cell-based. The conditions noted are these: plus IL3 (10 ng/ml murine IL3, counterscreen); read-out: BAF3-KDR (PLUS IL3) pIC50 (converted). In a few lines: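 20000 cells/well, RPMI-1640 + 10% FBS + 2 mM L-Gln; compound 24 h, 37° C/5% CO2; Alamar Blue 4 h; RFU ex540/em590.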

The target of assay [4] is Ba/F3-FGFR4-transfected cells (Homo sapiens, UniProt P22455). Nature of the assay: Ba/F3-FGFR4 cellular proliferation assay, Alamar Blue. Type of assay: cell-based. The method in brief:
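20000 cells/well, RPMI-1640 (phenol red free) + 10% FBS + 2 mM L-Gln; cpd from DMSO; 24 h, 37° C, 5% CO2; Alamar Blue 4 h; RFU ex 540/em 590 nm.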
Background: Resazurin is reduced to fluorescent resorufin, in cell work by metabolically active cells.

The mark [5] stands for this setting: average values if tested multiple times.

Sequence of FGFR1 (h) (P11362 22-822): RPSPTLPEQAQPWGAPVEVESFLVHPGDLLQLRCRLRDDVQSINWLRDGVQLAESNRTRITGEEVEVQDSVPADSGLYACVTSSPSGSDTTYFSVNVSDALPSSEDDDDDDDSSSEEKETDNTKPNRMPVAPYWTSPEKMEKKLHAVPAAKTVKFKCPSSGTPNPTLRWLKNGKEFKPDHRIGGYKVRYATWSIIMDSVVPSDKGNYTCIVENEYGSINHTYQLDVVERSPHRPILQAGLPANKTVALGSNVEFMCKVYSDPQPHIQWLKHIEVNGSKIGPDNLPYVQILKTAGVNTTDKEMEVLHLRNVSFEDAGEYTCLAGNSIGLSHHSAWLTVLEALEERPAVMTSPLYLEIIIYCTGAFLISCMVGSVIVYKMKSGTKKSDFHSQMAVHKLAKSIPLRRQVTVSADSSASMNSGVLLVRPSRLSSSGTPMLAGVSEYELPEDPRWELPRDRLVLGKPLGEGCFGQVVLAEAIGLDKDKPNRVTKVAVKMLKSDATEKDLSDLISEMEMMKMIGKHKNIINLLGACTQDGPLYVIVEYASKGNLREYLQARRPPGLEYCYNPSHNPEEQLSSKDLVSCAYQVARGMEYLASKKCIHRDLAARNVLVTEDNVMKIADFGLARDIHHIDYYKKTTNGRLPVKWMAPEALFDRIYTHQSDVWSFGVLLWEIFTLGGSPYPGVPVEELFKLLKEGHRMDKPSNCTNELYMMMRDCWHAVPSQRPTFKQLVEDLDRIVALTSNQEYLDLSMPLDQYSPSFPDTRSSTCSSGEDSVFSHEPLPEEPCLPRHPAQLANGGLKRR
Sequence of Ba/F3-FGFR4-transfected cells (P22455 whole entry, change not shown): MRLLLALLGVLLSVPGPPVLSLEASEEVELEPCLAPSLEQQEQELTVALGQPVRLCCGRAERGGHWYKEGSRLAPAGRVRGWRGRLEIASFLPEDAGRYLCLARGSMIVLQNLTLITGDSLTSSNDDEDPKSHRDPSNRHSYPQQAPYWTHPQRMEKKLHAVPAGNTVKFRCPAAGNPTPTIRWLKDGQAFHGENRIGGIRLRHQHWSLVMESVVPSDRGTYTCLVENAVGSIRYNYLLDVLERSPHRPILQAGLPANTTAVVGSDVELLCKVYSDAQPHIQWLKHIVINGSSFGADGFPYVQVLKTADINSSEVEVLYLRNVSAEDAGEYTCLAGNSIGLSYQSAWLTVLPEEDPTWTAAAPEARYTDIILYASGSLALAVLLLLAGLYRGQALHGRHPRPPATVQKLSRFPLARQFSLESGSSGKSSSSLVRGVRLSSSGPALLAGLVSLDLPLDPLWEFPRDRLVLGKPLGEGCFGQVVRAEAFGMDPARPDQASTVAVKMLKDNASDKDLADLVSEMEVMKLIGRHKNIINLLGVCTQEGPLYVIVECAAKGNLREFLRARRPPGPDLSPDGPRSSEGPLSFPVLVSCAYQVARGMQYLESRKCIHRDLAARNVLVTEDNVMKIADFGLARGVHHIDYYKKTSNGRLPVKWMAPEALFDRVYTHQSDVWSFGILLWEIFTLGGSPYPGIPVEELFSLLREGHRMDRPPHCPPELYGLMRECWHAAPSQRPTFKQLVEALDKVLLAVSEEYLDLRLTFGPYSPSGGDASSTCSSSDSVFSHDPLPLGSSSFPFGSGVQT
Sequence of KDR (h) (P35968 20-1356): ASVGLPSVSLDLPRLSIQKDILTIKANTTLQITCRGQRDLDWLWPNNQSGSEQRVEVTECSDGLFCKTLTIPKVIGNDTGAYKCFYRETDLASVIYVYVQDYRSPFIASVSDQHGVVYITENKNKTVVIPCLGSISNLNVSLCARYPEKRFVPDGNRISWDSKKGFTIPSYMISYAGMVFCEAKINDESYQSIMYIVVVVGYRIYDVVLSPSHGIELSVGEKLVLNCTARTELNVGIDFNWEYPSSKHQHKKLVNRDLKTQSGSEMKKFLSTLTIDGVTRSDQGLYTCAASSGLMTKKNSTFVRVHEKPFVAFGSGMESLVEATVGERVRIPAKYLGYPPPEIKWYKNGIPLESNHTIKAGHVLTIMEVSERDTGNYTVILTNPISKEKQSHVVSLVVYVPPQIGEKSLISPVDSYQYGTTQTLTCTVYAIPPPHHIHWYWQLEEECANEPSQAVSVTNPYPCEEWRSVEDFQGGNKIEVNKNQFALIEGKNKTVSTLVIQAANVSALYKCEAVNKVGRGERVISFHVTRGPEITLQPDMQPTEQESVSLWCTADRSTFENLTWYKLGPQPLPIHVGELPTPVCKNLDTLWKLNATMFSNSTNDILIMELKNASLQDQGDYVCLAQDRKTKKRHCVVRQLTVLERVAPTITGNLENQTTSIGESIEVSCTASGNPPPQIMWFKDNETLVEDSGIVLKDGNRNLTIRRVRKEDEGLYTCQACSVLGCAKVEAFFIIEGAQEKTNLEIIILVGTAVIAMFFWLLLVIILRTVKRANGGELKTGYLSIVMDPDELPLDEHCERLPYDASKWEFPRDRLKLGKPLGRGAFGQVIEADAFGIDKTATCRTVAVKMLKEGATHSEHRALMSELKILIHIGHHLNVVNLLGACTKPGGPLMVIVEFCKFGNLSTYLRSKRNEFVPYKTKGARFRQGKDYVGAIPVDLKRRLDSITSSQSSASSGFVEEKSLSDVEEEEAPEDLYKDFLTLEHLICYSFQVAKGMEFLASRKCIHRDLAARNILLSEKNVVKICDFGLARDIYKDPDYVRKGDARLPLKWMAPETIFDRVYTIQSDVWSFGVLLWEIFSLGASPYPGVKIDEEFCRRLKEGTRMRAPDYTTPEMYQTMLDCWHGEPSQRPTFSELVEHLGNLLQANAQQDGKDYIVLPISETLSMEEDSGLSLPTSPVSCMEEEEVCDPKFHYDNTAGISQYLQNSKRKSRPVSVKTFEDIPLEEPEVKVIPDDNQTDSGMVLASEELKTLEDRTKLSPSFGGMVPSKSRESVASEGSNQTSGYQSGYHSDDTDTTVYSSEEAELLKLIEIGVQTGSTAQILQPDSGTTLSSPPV

Consider `COc1cc(OC)c(F)c(N(Cc2c[nH]c(C)n2)c2ccc3ncc(-c4cnn(C)c4)nc3n2)c1` [Compound 137], for which the IC50 on FGFR1 (h) is 1.48 nM; at FGFR2 (h), 2.04 nM; on KDR (h) it was 11.2 nM; in assay [2] it was greater than 10000 nM; in assay [3], greater than 10000 nM. The “BAF3-FGFR1 (MIN IL3) pIC50” value in assay [1] is on record as roughly 8.11. For the same molecule, the “BAF3-FGFR4 pIC50” value in assay [4] is recorded as 7.23.
For the molecule `COc1cc(OC)c(F)c(N(CC2CCCCO2)c2ccc3ncc(-c4cnn(C)c4)nc3n2)c1` (centres unmarked) [Compound 139], the IC50 at FGFR1 (h) was 3.16 nM; at FGFR2 (h), 3.31 nM; at KDR (h), 28.8 nM; in assay [2], greater than 10000 nM; in assay [3], greater than 10000 nM. In assay [1], the “BAF3-FGFR1 (MIN IL3) pIC50” value is recorded as 7.40. Moreover, in assay [4], the “BAF3-FGFR4 pIC50” value was 6.61.
For `COc1cc(OC)c(F)c(N(Cc2nn[nH]n2)c2ccc3ncc(-c4cnn(C)c4)nc3n2)c1` [Compound 140], the IC50 on FGFR1 (h) is 11.7 nM; at FGFR2 (h) it was 4.47 nM; on KDR (h), 56.2 nM; in assay [2] it was greater than 10000 nM; in assay [3], greater than 10000 nM. Further, the “BAF3-FGFR1 (MIN IL3) pIC50” value in assay [1] was less than 5. Moreover, the “BAF3-FGFR4 pIC50” value in assay [4] is less than 5.
In the case of `COc1cc(OC)c(F)c(N(CC2CCC(=O)N2)c2ccc3ncc(-c4cnn(C)c4)nc3n2)c1F` (centres unmarked) [Compound 192], the IC50 was 1.15 nM at FGFR1 (h) (setting [5]); 2.51 nM at FGFR2 (h) (setting [5]); 13.8 nM at KDR (h) (setting [5]); greater than 10000 nM in assay [2]; greater than 10000 nM in assay [3]. Further, in assay [1], the “BAF3-FGFR1 (MIN IL3) pIC50” value was determined as 7.73. Besides, the “BAF3-FGFR4 pIC50” value in assay [4] was 7.01.
With `COc1cc(OC)c(F)c(/N=c2\ccc3ncc(-c4cnn(C)c4)nc3n2CC2CCC(=O)N2)c1F` (centres unmarked) [Compound 193], the IC50 on FGFR1 (h) (setting [5]) is 0.55 nM; at FGFR2 (h) (setting [5]) it was 0.794 nM; at KDR (h) (setting [5]), 7.24 nM; in assay [2], greater than 10000 nM; in assay [3] it was greater than 10000 nM. The “BAF3-FGFR1 (MIN IL3) pIC50” value in assay [1] stood at 8.01. Moreover, the “BAF3-FGFR4 pIC50” value in assay [4] was 7.00.
